Converted amounts (≈) assume the structure as drawn.

What is called IC50 is the concentration needed to halve the response being measured. As usually defined, the MIC is the least concentration at which growth counts as inhibited.

In one test the target is T1, Sortase A (Staphylococcus aureus, UniProt Q9S446).
T1 sequence (Q9S446 whole entry): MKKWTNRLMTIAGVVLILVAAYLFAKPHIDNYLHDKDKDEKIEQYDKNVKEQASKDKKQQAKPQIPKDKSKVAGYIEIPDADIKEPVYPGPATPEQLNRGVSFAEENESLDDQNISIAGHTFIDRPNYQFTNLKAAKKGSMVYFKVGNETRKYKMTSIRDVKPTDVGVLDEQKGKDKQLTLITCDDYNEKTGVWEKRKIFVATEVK
In words: Inhibition of Staphylococcus aureus ATCC 6538p sortase A expressed in Escherichia coli using dabcyl-QALPETGEE-edans as substrate incubated for 1 hr by fluorescence spectrophotometry analysis.

Test [1] in a line: Inhibition of Magnaporthe grisea Guy 11 isocitrate lyase using isocitrate as substrate by spectrophotometric based glyoxylate cycle assay. On the set-up: species or system Pyricularia grisea.
Another test has as its system Aspergillus fumigatus. In words: Antifungal activity against Aspergillus fumigatus HIC 6094 after 48 to 72 hrs at 28 degC by serial 2-fold dilution method. It is filed as functional.
In the next test the test system is Trichophyton rubrum. Nature of the test: Antifungal activity against Trichophyton rubrum IFO 9185 after 48 to 72 hrs at 28 degC by serial 2-fold dilution method. In kind it is functional.
The test system of test [2] is Trichophyton mentagrophytes. Nature of the test: Antifungal activity against Trichophyton mentagrophytes IFO 40996 after 48 to 72 hrs at 28 degC by serial 2-fold dilution method. In kind it is functional.
In the next test the test system is Candida albicans. In words: Antifungal activity against Candida albicans ATCC 10231 after 48 to 72 hrs at 28 degC by serial 2-fold dilution method. It is filed as functional.
The test system of a further test is Salmonella enterica. In words: Antibacterial activity against Salmonella enterica ATCC 14028 after 24 hrs at 37 degC by broth dilution method. In kind it is functional. To be noted: ATCC 14028, 24 h.
In a further test the test system is K562. Nature of the test: Cytotoxicity against human K562 cells assessed as reduction in cell viability after 72 hrs by MTT assay. In kind it is functional, cell-based. Conditions: K562, 72 h. On the technique in general: Tetrazolium dyes change colour on reduction, which living cells bring about.
For a further test, the system named is Escherichia coli. Nature of the test: Antibacterial activity against Escherichia coli ATCC 35270 after 24 hrs at 37 degC by broth dilution method. It is filed as functional. To be noted: ATCC 35270, 24 h. (In general: Broth dilution looks for growth in wells or tubes with falling amounts of substance.)
The test system of another test is A549. In words: Cytotoxicity against human A549 cells assessed as reduction in cell viability after 72 hrs by MTT assay. It is filed as functional, cell-based. To be noted: A549, 72 h.
A further test has as its system Proteus hauseri. In words: Antibacterial activity against Proteus hauseri NBRC 3851 after 24 hrs at 37 degC by broth dilution method. In kind it is functional. To be noted: NBRC 3851, 24 h.
The subject of a further test is Staphylococcus aureus. In words: Antibacterial activity against Staphylococcus aureus ATCC 6538p after 24 hrs at 37 degC by broth dilution method. It is filed as functional.
Another test concerns Bacillus subtilis. Nature of the test: Antibacterial activity against Bacillus subtilis ATCC 6633 after 24 hrs at 37 degC by broth dilution method. In kind it is functional. Conditions: ATCC 6633, 24 h.
For test [3], the target named is Sodium/potassium-transporting ATPase. In words: Inhibition of Na+/K+ -ATPase in human intrauterine growth restriction placental membrane using 3-O-methylfluorescein phosphate by fluorometric method in presence of Kcl. It is filed as tissue-based.
In a further test the test system is Kocuria rhizophila. In words: Antibacterial activity against Kocuria rhizophila NBRC 12708 after 24 hrs at 37 degC by broth dilution method. It is filed as functional. To be noted: NBRC 12708, 24 h.

For the compound `COc1ccc2cc3[n+](cc2c1OC)CCc1cc2c(cc1-3)OCO2` [BERBERINE CHLORIDE], at Sortase A, inhibition was half-maximal at 109 µM (IC50).
`O=C(O)CC[N+](=O)[O-]`: the IC50 in test [1] is 2.5 µg/mL (≈ 21 µM).
Turning to `C[C@@H]1[C@H](O)[C@@H](C)/C=C/C=C/C=C/C=C/C=C/C=C/C=C/[C@H](O[C@@H]2O[C@H](C)[C@@H](O)[C@H](N)[C@@H]2O)C[C@@H]2O[C@](O)(C[C@@H](O)C[C@@H](O)[C@H](O)CC[C@@H](O)C[C@@H](O)CC(=O)O[C@H]1C)C[C@H](O)[C@H]2C(=O)O` [AMPHOTERICIN B], the MIC in the test on Aspergillus fumigatus came to 8 µg/mL (≈ 8.66 µM); with Trichophyton rubrum, 1 µg/mL (≈ 1.08 µM); in test [2] it was 4 µg/mL (≈ 4.33 µM); in the test on Candida albicans it was 0.5 µg/mL (≈ 0.541 µM).
For `C=C1CCC[C@@]23Oc4ccc(O)cc4C[C@]2(C)[C@@H](C)CC[C@@]13C`, the minimum inhibitory concentration (MIC) with Salmonella enterica is 1 µg/mL (≈ 3.2 µM); against Escherichia coli, more than 128 µg/mL; in the test with Aspergillus fumigatus, more than 128 µg/mL; against Proteus hauseri, 2 µg/mL (≈ 6.4 µM); with Trichophyton rubrum, more than 128 µg/mL; in test [2] it was 8 µg/mL (≈ 25.6 µM). For the same compound, the MIC against Staphylococcus aureus was 2 µg/mL (≈ 6.4 µM); in the test on Candida albicans it was more than 128 µg/mL; in the test with Bacillus subtilis, 1 µg/mL (≈ 3.2 µM); in the test with Kocuria rhizophila, 1 µg/mL (≈ 3.2 µM). Also, the IC50 with K562 is 4.8 µM; with A549 it was 5.9 µM; at Sortase A, more than 410 µM; in test [3] it was 69.1 µM.
Take `C=C1CCC[C@@]23C4=C(C[C@]2(C)[C@@H](C)CC[C@@]13C)C(=O)C=C(NCCS(=O)(=O)O)C4=O`: the minimum inhibitory concentration (MIC) (in the test with Salmonella enterica; against Escherichia coli; against Aspergillus fumigatus; in the test on Proteus hauseri; against Trichophyton rubrum; in test [2]) was more than 128 µg/mL throughout. The minimum inhibitory concentration (MIC) against Staphylococcus aureus is more than 128 µg/mL; in the test on Candida albicans, more than 128 µg/mL; with Bacillus subtilis it was more than 128 µg/mL; against Kocuria rhizophila it was 128 µg/mL (≈ 295 µM). For the same compound, the 50% inhibitory concentration (IC50) in the test with K562 is 1.1 µM; with A549, 2.3 µM; at Sortase A it was more than 295 µM; in [3], 285 µM.
Consider `C=C1CCC[C@H]2[C@](C)(CC3=CC(=O)C=C(NCCS(=O)(=O)O)C3=O)[C@@H](C)CC[C@@]12C`, for which the MIC in the test with Salmonella enterica was 32 µg/mL (≈ 73.5 µM); in the test with Escherichia coli, more than 128 µg/mL; against Aspergillus fumigatus, more than 128 µg/mL; against Proteus hauseri it was 32 µg/mL (≈ 73.5 µM); with Trichophyton rubrum it was more than 128 µg/mL; in test [2] it was 128 µg/mL (≈ 294 µM). The MIC in the test with Staphylococcus aureus was 64 µg/mL (≈ 147 µM); in the test with Candida albicans it was 16 µg/mL (≈ 36.7 µM); in the test on Bacillus subtilis, 32 µg/mL (≈ 73.5 µM); with Kocuria rhizophila it was 8 µg/mL (≈ 18.4 µM). Besides, the IC50 with K562 is 6.9 µM; in [1] it was 43.5 µg/mL (≈ 99.9 µM); in the test on A549, 4.2 µM; against Sortase A it was 272 µM; in test [3] it was 82.2 µM.
On to `C=C1CCC[C@H]2[C@](C)(CC3=CC(=O)C=C(N(C)CCS(=O)(=O)O)C3=O)[C@@H](C)CC[C@@]12C`, for which the MIC against Salmonella enterica was 128 µg/mL (≈ 285 µM); in the test on Escherichia coli it was more than 128 µg/mL; in the test on Aspergillus fumigatus, more than 128 µg/mL; in the test with Proteus hauseri, 128 µg/mL (≈ 285 µM); in the test with Trichophyton rubrum it was more than 128 µg/mL; in [2], 128 µg/mL (≈ 285 µM). The minimum inhibitory concentration (MIC) against Staphylococcus aureus turned out to be 128 µg/mL (≈ 285 µM); with Candida albicans it was 128 µg/mL (≈ 285 µM); in the test on Bacillus subtilis, 64 µg/mL (≈ 142 µM); with Kocuria rhizophila, 64 µg/mL (≈ 142 µM). The concentration for half-maximal inhibition (IC50) with K562 is 5.7 µM; in test [1], 93.3 µg/mL (≈ 208 µM); in the test on A549 it was 6.1 µM; on Sortase A, more than 285 µM; in [3], 94.5 µM.
`CC1(C)S[C@@H]2[C@H](NC(=O)[C@H](N)c3ccccc3)C(=O)N2[C@H]1C(=O)O` [AMPICILLIN]: the MIC is 0.06 µg/mL (≈ 0.172 µM) against Salmonella enterica; 4 µg/mL (≈ 11.4 µM) against Escherichia coli; less than 0.06 µg/mL against Proteus hauseri; 0.13 µg/mL (≈ 0.372 µM) against Staphylococcus aureus; less than 0.06 µg/mL with Bacillus subtilis; less than 0.06 µg/mL with Kocuria rhizophila.
As for `C=C1CCC[C@@]23C4=C(C[C@]2(C)[C@@H](C)CC[C@@]13C)C(=O)C=C(NC)C4=O`, the minimal inhibitory concentration (MIC) in the test with Salmonella enterica is more than 128 µg/mL; with Escherichia coli it was more than 128 µg/mL; with Aspergillus fumigatus, more than 128 µg/mL; against Proteus hauseri, more than 128 µg/mL; in the test with Trichophyton rubrum, more than 128 µg/mL; in test [2] it was 128 µg/mL (≈ 377 µM). The minimal inhibitory concentration (MIC) against Staphylococcus aureus is more than 128 µg/mL; against Candida albicans it was more than 128 µg/mL; in the test on Bacillus subtilis, more than 128 µg/mL; with Kocuria rhizophila, 2 µg/mL (≈ 5.89 µM). Moreover, the IC50 is 4 µM in the test on K562, 4.9 µM in the test on A549, more than 377 µM on Sortase A and more than 377 µM in test [3].
On to `C=C1CCC[C@@]23C4=C(C[C@]2(C)[C@@H](C)CC[C@@]13C)C(=O)C(OC)=CC4=O`, for which the minimal inhibitory concentration (MIC) in the test with Salmonella enterica was 16 µg/mL (≈ 47 µM); in the test with Escherichia coli, more than 128 µg/mL; in the test with Aspergillus fumigatus it was more than 128 µg/mL; against Proteus hauseri, 16 µg/mL (≈ 47 µM); with Trichophyton rubrum, more than 128 µg/mL; in [2] it was more than 128 µg/mL. For the same compound, the MIC in the test with Staphylococcus aureus is more than 128 µg/mL; against Candida albicans it was more than 128 µg/mL; in the test with Bacillus subtilis, 16 µg/mL (≈ 47 µM); with Kocuria rhizophila it was 8 µg/mL (≈ 23.5 µM). Further, the 50% inhibitory concentration (IC50) was 0.7 µM with K562, more than 128 µg/mL in [1], 3.3 µM in the test with A549 and more than 376 µM in test [3].
On to `C=C1CCC[C@H]2[C@](C)(Cc3cc(O)ccc3O)[C@@H](C)CC[C@@]12C` [ARENAROL], for which the MIC against Salmonella enterica is 4 µg/mL (≈ 12.7 µM); with Escherichia coli, more than 128 µg/mL; with Aspergillus fumigatus, more than 128 µg/mL; in the test on Proteus hauseri, 2 µg/mL (≈ 6.36 µM); against Trichophyton rubrum, 4 µg/mL (≈ 12.7 µM); in test [2], 8 µg/mL (≈ 25.4 µM). The minimum inhibitory concentration (MIC) against Staphylococcus aureus, with Candida albicans, against Bacillus subtilis and with Kocuria rhizophila was 4 µg/mL (≈ 12.7 µM) in each case. Also, the half-maximal inhibitory concentration (IC50) with K562 was 3.4 µM; in the test on A549, 3.7 µM; on Sortase A, more than 407 µM; in test [3], 11.4 µM.

The values are drawn from ChEMBL document CHEMBL3745680, “Meroterpenoids from a Tropical Dysidea sp. Sponge” (J Nat Prod, 2015).
